Measured values: ChEMBL document CHEMBL1156427, “Hepatitis C virus NS5A is a direct substrate of casein kinase I-alpha, a cellular kinase identified by inhibitor affinity chromatography using specific NS5A hyperphosphorylation inhibitors” (J Biol Chem, 2007)

Tests used:
[1] = target: Ribosomal protein S6 kinase alpha-3 (Homo sapiens, UniProt P51812); test: Inhibition of human RSK2
MAP kinase p38 = MAP kinase p38 (Homo sapiens, UniProt O15264+Q15759+Q16539+P53778); test: Inhibition of human p38 MAPK; type: protein assay
[2] = target: Casein kinase I isoform delta (Homo sapiens, UniProt P48730); test: Inhibition of human CKIdelta
Sequence of Casein kinase I isoform delta (P48730 whole entry, canonical isoform): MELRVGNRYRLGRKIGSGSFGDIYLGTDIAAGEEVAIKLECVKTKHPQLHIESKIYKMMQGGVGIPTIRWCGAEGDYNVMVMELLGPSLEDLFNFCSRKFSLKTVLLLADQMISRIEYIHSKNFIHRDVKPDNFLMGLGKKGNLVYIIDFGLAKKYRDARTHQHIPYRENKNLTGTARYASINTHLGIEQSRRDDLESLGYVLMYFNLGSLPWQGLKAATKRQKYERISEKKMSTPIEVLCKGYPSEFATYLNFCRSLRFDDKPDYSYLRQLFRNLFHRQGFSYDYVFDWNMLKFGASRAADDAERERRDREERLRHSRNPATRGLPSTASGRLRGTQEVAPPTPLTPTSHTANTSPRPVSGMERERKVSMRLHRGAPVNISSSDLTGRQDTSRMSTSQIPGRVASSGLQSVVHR

[3] = target: Casein kinase I isoform alpha (Homo sapiens, UniProt P48729); test: Inhibition of human CKIalpha
Sequence of Casein kinase I isoform alpha (P48729 whole entry, canonical isoform): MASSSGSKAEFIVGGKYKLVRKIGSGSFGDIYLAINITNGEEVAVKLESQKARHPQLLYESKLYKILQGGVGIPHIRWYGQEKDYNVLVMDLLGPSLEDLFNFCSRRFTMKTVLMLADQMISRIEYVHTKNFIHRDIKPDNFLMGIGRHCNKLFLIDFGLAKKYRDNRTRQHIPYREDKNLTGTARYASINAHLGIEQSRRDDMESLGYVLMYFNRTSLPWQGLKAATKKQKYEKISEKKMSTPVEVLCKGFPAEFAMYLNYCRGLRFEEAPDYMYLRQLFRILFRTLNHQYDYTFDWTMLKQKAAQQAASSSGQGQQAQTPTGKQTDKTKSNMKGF

[4] = Inhibition of human PKA
[5] = target: Mitogen-activated protein kinase 8 (Homo sapiens, UniProt P45983); test: Inhibition of human JNK1
Sequence of Mitogen-activated protein kinase 8 (P45983 whole entry): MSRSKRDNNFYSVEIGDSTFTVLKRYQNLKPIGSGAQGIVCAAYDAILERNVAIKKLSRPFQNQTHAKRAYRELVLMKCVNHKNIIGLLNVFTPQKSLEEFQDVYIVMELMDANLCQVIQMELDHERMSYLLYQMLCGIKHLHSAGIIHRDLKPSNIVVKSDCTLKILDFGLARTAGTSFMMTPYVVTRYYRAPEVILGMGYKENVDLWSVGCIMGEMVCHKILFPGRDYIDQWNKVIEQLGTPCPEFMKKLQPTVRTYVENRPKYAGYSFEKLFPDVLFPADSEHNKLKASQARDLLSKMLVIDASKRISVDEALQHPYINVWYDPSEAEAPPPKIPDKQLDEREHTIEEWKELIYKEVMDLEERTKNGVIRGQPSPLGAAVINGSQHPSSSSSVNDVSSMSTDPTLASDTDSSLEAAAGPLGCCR

[6] = target: Mitogen-activated protein kinase 9 (Homo sapiens, UniProt P45984); test: Inhibition of human JNK2
Sequence of Mitogen-activated protein kinase 9 (P45984 whole entry): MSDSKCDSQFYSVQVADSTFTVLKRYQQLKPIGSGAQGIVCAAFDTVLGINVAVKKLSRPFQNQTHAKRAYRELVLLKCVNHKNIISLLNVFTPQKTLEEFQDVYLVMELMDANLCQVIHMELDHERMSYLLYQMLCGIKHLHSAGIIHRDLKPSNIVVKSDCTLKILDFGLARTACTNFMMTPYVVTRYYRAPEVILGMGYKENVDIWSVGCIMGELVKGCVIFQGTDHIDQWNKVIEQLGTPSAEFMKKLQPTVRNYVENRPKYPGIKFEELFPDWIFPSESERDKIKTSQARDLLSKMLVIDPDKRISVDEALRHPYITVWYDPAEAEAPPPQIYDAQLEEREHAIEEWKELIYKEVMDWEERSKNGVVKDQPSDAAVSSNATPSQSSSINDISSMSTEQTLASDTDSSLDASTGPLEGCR

[7] = target: Casein kinase II subunit alpha (Homo sapiens, UniProt P68400); test: Inhibition of human CK2
Sequence of Casein kinase II subunit alpha (P68400 whole entry): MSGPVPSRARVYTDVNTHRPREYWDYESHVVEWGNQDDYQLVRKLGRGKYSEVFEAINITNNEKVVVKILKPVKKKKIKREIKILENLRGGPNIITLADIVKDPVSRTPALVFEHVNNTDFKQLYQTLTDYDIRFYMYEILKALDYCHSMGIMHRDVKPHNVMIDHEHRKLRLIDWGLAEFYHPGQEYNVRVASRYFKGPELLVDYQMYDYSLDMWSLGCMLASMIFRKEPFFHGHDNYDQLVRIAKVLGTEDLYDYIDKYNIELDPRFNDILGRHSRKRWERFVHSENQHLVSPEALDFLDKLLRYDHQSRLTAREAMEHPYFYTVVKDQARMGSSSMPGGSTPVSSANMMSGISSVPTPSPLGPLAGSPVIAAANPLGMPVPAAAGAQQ

Sequence of Ribosomal protein S6 kinase alpha-3 (P51812 whole entry): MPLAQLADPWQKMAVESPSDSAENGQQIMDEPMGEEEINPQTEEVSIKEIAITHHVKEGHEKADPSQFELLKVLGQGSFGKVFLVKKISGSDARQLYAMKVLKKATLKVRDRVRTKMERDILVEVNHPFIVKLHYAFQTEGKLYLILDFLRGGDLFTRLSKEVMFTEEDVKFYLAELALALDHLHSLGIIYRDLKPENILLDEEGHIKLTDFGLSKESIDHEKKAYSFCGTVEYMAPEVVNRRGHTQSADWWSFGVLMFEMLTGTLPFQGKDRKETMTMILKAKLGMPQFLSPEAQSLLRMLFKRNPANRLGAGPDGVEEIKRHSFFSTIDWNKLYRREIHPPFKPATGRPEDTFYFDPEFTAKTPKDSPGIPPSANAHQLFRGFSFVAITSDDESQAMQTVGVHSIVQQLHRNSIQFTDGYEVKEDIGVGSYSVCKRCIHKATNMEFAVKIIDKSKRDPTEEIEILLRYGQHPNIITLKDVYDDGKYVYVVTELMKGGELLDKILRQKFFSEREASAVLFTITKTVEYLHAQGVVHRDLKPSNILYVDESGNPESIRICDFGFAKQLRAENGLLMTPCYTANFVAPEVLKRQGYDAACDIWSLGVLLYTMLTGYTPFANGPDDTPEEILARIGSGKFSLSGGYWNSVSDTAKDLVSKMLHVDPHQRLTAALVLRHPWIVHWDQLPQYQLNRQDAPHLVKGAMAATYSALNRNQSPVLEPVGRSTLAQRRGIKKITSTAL

Row | IC50 [1] | IC50 (MAP kinase p38) | IC50 [2] | IC50 [3] | IC50 [4] | IC50 [5] | IC50 [6] | IC50 [7] | Structure (SMILES)
1 | 39 µM | <= 0.024 uM | 0.4 µM | 1.3 µM | 2 µM | 175 µM | 166 µM | > 100 µM | CC1CCC(c2nc(-c3ccc(F)cc3)c(-c3ccncc3)[nH]2)CC1 (stereo unspecified)
2 | 76 µM | <= 0.028 uM | 1.4 µM | 1.1 µM | 260 µM | 385 µM | 404 µM | > 100 µM | CNc1nccc(-c2nc(C3CCNCC3)[nH]c2-c2cccc(C(F)(F)F)c2)n1
